{
  "source": "patent US8445502B2",
  "about": "“Pharmaceutical formulations comprising salts of a protein kinase inhibitor and methods of using same” (Astex Pharmaceuticals, Inc., priority 2007, dated 2013)",
  "key": {"A549 lung cancer cells": {"test_system": "A549 lung cancer cells", "type": "in vivo", "conditions": "Day 26, 10 mg/kg IP in sterile saline, qd×5×3 wk (vehicle 43)", "method": "(§1) MP470 and MP470 HCl were tested against different tumor types in athymic nude mice as summarized below (Table 8). Various formulations and routes were evaluated. HT-29 colorectal cancer cells and SB-CL2 melanoma cells were implanted subcutaneously, while A549 lung cancer cells, MiaPaCa-2 pancreatic cancer cells, TT medullary thyroid cancer cells, and OVCAR-3 ovarian cancer cells were implanted […] in the hind flank of mice. All animals were allowed to develop medium-sized (80-125 mg) tumors, before initiation of dosing. Tumor volume and mouse bodyweight were followed over the course of the study.\nA549 Lung Cancer Model—In 40 nude mice implanted intradermally with A549 lung cancer cells, animals were dosed with vehicle orally, MP470 in 100% corn oil orally, or 5-FU in sterile saline IP. […] […] While MP470 reduced tumor growth rates, treatment of these cells with 5-FU reduced the overall tumor growth rate per day further to 19.5 mm3/d on Day 26.\nTo determine whether MP470.HCl in combination with carboplatin increased the anti-tumor activity in xenograft tumors growing in vivo, the agents were administered alone and in combination and tumor growth was monitored. MP470.HCl (50 mg/kg) was combined with carboplatin (30 mg/kg) alone or carboplatin with taxol (20 mg/kg)."}, "A549 NSCLC cells": {"test_system": "A549 NSCLC cells", "test": "Sensitization of NSCLC cells to carboplatin", "type": "cell-based", "conditions": "A549, single agent", "method": "(§2) The non-small cell lung cancer cell lines A549 and NCI-H647 were used for these experiments. […] The IC50 concentrations observed for carboplatin against both of these cell lines was consistent with this.\n(§3) Two sub-IC50 doses of MP470.HCl were tested in combination with carboplatin to evaluate possible synergism between these agents and consequently a lower IC50 value for carboplatin in each of the cell lines.\n(§4) MP470.HCl was able to dramatically decrease the IC50 of carboplatin in these cells."}, "NCI-H647 NSCLC cells": {"test_system": "NCI-H647 NSCLC cells", "test": "Sensitization of NSCLC cells to carboplatin", "type": "cell-based", "conditions": "NCI-H647, single agent", "method": "as §2, §3, §4"}, "[1]": {"test_system": "Rad51 in A549 non-small cell lung cancer cells", "test": "Rad51 protein level by Western blot in cells", "type": "cell-based", "conditions": "6.1 μM carboplatin, 24 hrs", "method": "Rad51 protein levels were also determined in A549 non-small cell lung cancer cells using combinations with DNA damaging agents. Cells were treated for 24 hrs with 6.1 μM (IC30 of carboplatin alone) carboplatin in combination with 0.71 μM or 3.82 μM MP470.HCl. Protein lysates were isolated from treated and non-treated cells, separated by SDS-PAGE, and transferred to nitrocellulose. […] The increase in Rad51 due to carboplatin treatment was reduced by 26% when treated in combination with 0.71 μM MP470.HCl and by 42% with 3.82 μM MP470.HCl"}, "DMS-153 SCLC cells": {"test_system": "DMS-153 SCLC cells", "test": "Sensitization of SCLC cells to etoposide", "type": "cell-based", "conditions": "Homo sapiens; DMS-153, single agent", "method": "(§5) Therefore, to determine if MP470 would increase sensitivity to etoposide treatment, SCLC cells were treated with the agents individually and in combination. […] Two sub-IC50 doses of MP470.HCl were tested in combination with etoposide to evaluate possible synergism and a resulting lower IC50 value for etoposide in each of the cell lines."}, "DMS-114 SCLC cells": {"test_system": "DMS-114 SCLC cells", "test": "Sensitization of SCLC cells to etoposide", "type": "cell-based", "conditions": "Homo sapiens; DMS-114, single agent", "method": "as §5"}, "[2]": {"test": "Solubility of MP470 and its salts (Table 2)", "type": "physicochemical", "conditions": "water"}, "[3]": {"test_system": "OVCAR-3 ovarian cancer cells", "test": "OVCAR-3 ovarian cancer tumor model in nude mice", "type": "in vivo", "method": "as §1\nOVCAR-3 Ovarian Cancer Model—Forty-two nude mice were implanted subcutaneously with OVCAR-3 ovarian carcinoma, the hydrochloride salt of MP470 (MP470.HCl) was formulated in 100% corn oil and delivered orally. MP470.HCl, cisplatin, and irinotecan were administered to animals alone or in combination. When administered alone, MP470.HCl was given qd at 100 or 200 mg/kg, irinotecan was given q3d at 20 mg/kg, and cisplatin was given q7d at 5 mg/kg. In combination studies, 100 mg/kg MP470.HCl was given qd and combined with 20 mg/kg irinotecan given q3d or 5 mg/kg cisplatin given q7d. One animal in the 200 mg/kg MP470.HCl group died on Day 1, while five animals in the MP470.HCl/cisplatin combination group died (one on Day 5, Day 6, Day 7, Day, 20, and Day 27). Treatment with each individual agent (200 mg/kg MP470.HCl, 46.2 mm3/d; 20 mg/kg irinotecan, 38.53 mm3/d; 5 mg/kg cisplatin, 33.8 mm3/d) reduced the tumor growth rate below that of vehicle-treated mice (78.04 mm3/d). […] In contrast, when MP470.HCl and cisplatin were used in combination, the tumor growth rate was reduced to 10.22 mm3/d. However, the 100 mg/kg dose of MP470.HCl in combination with cisplatin caused enhanced toxicity and most animals in this group died during the 21-day treatment period. The enhanced toxicity was related to the level of the dose used, so a subsequent study was conducted using half the dose, 50 mg/kg/day as described below."}, "[4]": {"conditions": "rat, in vivo, po", "method": "Twenty-four rats were placed into four groups each consisting of three animals per sex. The animals were weighed the day before dosing, as well as just prior to dosing.\nAfter intravenous infusion of MP470.HCl at 5 mg/kg, average MP470 peak plasma concentrations of 454.3 ng/mL for males and 370.7 ng/mL for females were attained at 0.083 hours (5 minutes), the first sampling point postdose. After oral administration of non-micronized MP470.HCl, peak plasma concentrations of MP470 were attained at 0.5-12 hours for Group 2 (25 mg/kg) and 4-12 hours for Group 3 (100 mg/kg, suspension). The extent of systemic exposure of rats to MP470, characterized by AUCO-∞, was approximately 3.8-fold and 2.9-fold higher in females than in males for Groups 2 and 3, respectively. Average AUCO-∞ values were higher at 100 mg/kg than at 25 mg/kg and the increases in AUCO-∞ were greater than dose-proportional.\nAfter oral administration of micronized MP470.HCl (Group 4), peak plasma concentrations of MP470 were attained at 4-12 hours. The extent of systemic exposure of rats to MP470, characterized by AUCO-∞, was approximately 3.4-fold higher in females than in males for Group 4. The extent of exposure of rats to MP470, characterized by AUCO-∞, was 1.7-fold (males) and 1.4-fold (females) higher for non-micronized MP470 HCl (Group 3) than for micronized MP470 HCl (Group 4)."}, "[5]": {"test_system": "γ-H2AX levels in OVCAR-3 (ovarian carcinoma) cells", "test": "DNA damage by γ-H2AX levels", "type": "cell-based", "conditions": "single agent 10 μM; control 0.5% DMSO medium", "method": "OVCAR-3 (ovarian carcinoma) cells were treated with MP470 (10 μM), MP470.HCl (10 μM), and/or topotecan (10 μM)."}},
  "note": "Where two headings read alike, the source gives them in different places.",
  "data": [
    {"smiles": "O=c1[nH]cc(F)c(=O)[nH]1", "note": "[5-FU, 5-fluorouracil, reference compound]", "values": [
      {"measurement": "tumor growth rate", "setting": "A549 lung cancer cells", "value": 19.5, "unit": "mm3/d"}
    ]},
    {"smiles": "N.N.O=C([O-])C1(C(=O)[O-])CCC1.[Pt+2]", "note": "[Carboplatin, reference compound]", "values": [
      {"measurement": "IC50", "setting": "A549 NSCLC cells", "value": 20.1, "unit": "µM"},
      {"measurement": "IC50", "setting": "NCI-H647 NSCLC cells", "value": 173, "unit": "µM"},
      {"measurement": "increase of Rad51 levels over non-treatment levels", "setting": "[1]", "value": 12, "unit": "fold"}
    ]},
    {"smiles": "COc1cc([C@@H]2c3cc4c(cc3[C@@H](O[C@@H]3O[C@@H]5CO[C@@H](C)O[C@H]5[C@H](O)[C@H]3O)[C@H]3COC(=O)[C@H]23)OCO4)cc(OC)c1O", "note": "[Etoposide, reference compound]", "values": [
      {"measurement": "IC50", "setting": "DMS-153 SCLC cells", "value": 0.29, "unit": "µM"},
      {"measurement": "IC50", "setting": "DMS-114 SCLC cells", "value": 0.92, "unit": "µM"}
    ]},
    {"smiles": "S=C(NCc1ccc2c(c1)OCO2)N1CCN(c2ncnc3c2oc2ccccc23)CC1", "note": "[MP470 Esylate]", "values": [
      {"measurement": "Solubility in water", "setting": "[2]", "value": 5.89, "unit": "µg/mL"}
    ]},
    {"smiles": "N.N.[Cl][Pt][Cl]", "note": "[cisplatin, reference compound]", "values": [
      {"measurement": "tumor growth rate", "setting": "[3]; 5 mg/kg q7d (vehicle 78.04)", "value": 33.8, "unit": "mm3/d"}
    ]},
    {"smiles": "CCc1c2c(nc3ccc(OC(=O)N4CCC(N5CCCCC5)CC4)cc13)-c1cc3c(c(=O)n1C2)COC(=O)[C@]3(O)CC", "note": "[irinotecan, reference compound]", "values": [
      {"measurement": "tumor growth rate", "setting": "[3]; 20 mg/kg q3d (vehicle 78.04)", "value": 38.53, "unit": "mm3/d"}
    ]},
    {"smiles": "Cl.S=C(NCc1ccc2c(c1)OCO2)N1CCN(c2ncnc3c2oc2ccccc23)CC1", "note": "[micronized MP470.HCl]", "values": [
      {"measurement": "AUC0-∞ in females relative to males", "setting": "[4]; 100 mg/kg", "value": "approximately 3.4 fold"},
      {"measurement": "time of peak plasma concentration", "setting": "[4]; 100 mg/kg", "value": "4 to 12", "unit": "h"}
    ]},
    {"smiles": "Cl.S=C(NCc1ccc2c(c1)OCO2)N1CCN(c2ncnc3c2oc2ccccc23)CC1", "note": "[non-micronized MP470.HCl]", "values": [
      {"measurement": "AUC0-∞ in females relative to males", "setting": "[4]; 25 mg/kg", "value": "approximately 3.8 fold"},
      {"measurement": "time of peak plasma concentration", "setting": "[4]; 25 mg/kg", "value": "0.5 to 12", "unit": "h"},
      {"measurement": "AUC0-∞ in females relative to males", "setting": "[4]; 100 mg/kg", "value": "~2.9", "unit": "fold"},
      {"measurement": "time of peak plasma concentration", "setting": "[4]; 100 mg/kg", "value": "4 to 12", "unit": "h"}
    ]},
    {"smiles": "CC[C@@]1(O)C(=O)OCc2c1cc1n(c2=O)Cc2cc3c(CN(C)C)c(O)ccc3nc2-1", "note": "[topotecan, reference compound]", "values": [
      {"measurement": "Increase in DNA damage (γ-H2AX) over control", "setting": "[5]", "value": 65, "unit": "%"}
    ]}
  ]
}
